Drawing on patent US9051270B2, “Pyridone amides as modulators of sodium channels” (Vertex Pharmaceuticals Incorporated, priority 2013, dated 2015), this text covers IC50 for 36 compounds.

The target in this experiment is human Nav1.8 (Homo sapiens (Human), UniProt Q9Y5Y9). The experiment can be described thus: E-VIPR optical membrane potential assay with electrical stimulation. The conditions noted are these: HEK cells expressing human Nav1.8. Type of experiment: cell-based.
Sequence of human Nav1.8 (Q9Y5Y9 whole entry): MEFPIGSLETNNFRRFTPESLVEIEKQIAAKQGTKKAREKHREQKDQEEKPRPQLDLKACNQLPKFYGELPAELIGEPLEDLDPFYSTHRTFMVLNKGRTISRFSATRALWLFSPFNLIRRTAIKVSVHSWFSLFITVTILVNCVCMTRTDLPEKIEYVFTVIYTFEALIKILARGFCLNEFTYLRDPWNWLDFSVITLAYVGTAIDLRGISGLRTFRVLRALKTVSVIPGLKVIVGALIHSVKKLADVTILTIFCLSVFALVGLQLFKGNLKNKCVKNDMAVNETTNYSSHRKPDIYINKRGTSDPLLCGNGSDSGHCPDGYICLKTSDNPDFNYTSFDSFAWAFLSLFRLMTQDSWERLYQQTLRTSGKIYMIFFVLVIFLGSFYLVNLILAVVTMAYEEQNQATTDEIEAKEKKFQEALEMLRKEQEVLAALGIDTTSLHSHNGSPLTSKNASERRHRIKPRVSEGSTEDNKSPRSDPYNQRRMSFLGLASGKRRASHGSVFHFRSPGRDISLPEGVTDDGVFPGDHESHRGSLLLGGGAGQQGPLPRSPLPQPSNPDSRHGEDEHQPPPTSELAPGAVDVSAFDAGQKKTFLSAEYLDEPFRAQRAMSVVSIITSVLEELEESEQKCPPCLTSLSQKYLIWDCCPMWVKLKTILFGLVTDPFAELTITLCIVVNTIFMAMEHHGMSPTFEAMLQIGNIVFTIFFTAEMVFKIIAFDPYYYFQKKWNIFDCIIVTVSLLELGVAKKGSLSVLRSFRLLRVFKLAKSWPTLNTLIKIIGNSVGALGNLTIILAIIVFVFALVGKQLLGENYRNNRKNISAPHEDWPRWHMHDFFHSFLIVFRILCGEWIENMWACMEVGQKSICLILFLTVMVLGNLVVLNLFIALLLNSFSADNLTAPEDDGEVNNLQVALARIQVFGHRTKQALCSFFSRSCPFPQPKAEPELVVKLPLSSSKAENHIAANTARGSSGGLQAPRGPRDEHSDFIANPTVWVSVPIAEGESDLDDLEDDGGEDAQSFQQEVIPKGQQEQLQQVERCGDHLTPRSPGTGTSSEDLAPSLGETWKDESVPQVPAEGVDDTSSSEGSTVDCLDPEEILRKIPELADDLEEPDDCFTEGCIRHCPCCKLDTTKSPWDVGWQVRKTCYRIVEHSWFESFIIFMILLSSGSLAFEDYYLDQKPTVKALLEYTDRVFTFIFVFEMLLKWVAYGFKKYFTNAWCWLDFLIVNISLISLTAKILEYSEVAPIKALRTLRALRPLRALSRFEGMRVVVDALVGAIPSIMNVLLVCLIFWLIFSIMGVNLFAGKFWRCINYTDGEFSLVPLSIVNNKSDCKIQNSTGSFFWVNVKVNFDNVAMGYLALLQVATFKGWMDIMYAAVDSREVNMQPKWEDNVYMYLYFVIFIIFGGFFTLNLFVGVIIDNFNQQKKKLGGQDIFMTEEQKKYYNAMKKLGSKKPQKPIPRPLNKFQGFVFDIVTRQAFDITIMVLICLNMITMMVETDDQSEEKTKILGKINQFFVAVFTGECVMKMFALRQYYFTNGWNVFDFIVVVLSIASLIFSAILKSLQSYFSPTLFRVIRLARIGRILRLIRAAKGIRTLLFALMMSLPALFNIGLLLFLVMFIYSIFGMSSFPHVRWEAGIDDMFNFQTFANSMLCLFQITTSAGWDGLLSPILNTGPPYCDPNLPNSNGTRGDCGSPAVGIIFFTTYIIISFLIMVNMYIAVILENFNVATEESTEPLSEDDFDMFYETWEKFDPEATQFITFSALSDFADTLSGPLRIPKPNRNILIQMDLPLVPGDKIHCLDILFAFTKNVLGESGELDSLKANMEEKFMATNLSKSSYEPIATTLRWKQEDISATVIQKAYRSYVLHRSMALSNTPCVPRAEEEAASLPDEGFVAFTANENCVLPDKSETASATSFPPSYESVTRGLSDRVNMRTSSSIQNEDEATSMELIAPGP
On to `O=C(Nc1cc[nH]c(=O)c1)c1ccc(C(F)(F)F)cc1OCC1CCOC1` (stereo not drawn) [Compound 121, N-(2-oxo-1,2-dihydropyridin-4-yl)-2-((tetrahydrofuran-3-yl)methoxy)-4-(trifluoromethyl)benzamide], for which the IC50 (usually the midpoint of a concentration-inhibition curve) worked out at 19000 nM.
Next, `O=C(Nc1cc[nH]c(=O)c1)c1ccc(C(F)(F)F)cc1OC1CCC1` [Compound 122, 2-cyclobutoxy-N-(2-oxo-1,2-dihydropyridin-4-yl)-4-(trifluoromethyl)benzamide]: 4200 nM; `CC1(C)CC1COc1cc(C(F)(F)F)ccc1C(=O)Nc1cc[nH]c(=O)c1` (stereo not drawn) [Compound 124, 2-((2,2-dimethylcyclopropyl)methoxy)-N-(2-oxo-1,2-dihydropyridin-4-yl)-4-(trifluoromethyl)benzamide]: 485 nM; `O=C(Nc1cc[nH]c(=O)c1)c1ccc(C(F)(F)F)cc1OC1C[C@@H]2C[C@@H]2C1` (stereo partly drawn) [Compound 125, 2-((1R,5S)-bicyclo[3.1.0]hexan-3-yloxy)-N-(2-oxo-1,2-dihydropyridin-4-yl)-4-(trifluoromethyl)benzamide]: 17500 nM.
The same measure for `O=C(Nc1cc[nH]c(=O)c1)c1ccc(C(F)(F)F)cc1OCC1CC1(F)F` (stereo not drawn) [Compound 126, 2-((2,2-difluorocyclopropyl)methoxy)-N-(2-oxo-1,2-dihydropyridin-4-yl)-4-(trifluoromethyl)benzamide]: 1400 nM.
The same measure for `O=C(Nc1cc[nH]c(=O)c1)c1ccc(C(F)(F)F)cc1OC1CC2CCC1C2` (stereo not drawn) [Compound 127, 2-(bicyclo[2.2.1]heptan-2-yloxy)-N-(2-oxo-1,2-dihydropyridin-4-yl)-4-(trifluoromethyl)benzamide]: 1300 nM.
`O=C(Nc1cc[nH]c(=O)c1)c1ccc(C(F)(F)F)cc1OC1CCCCC1` [Compound 128, 2-(cyclohexyloxy)-N-(2-oxo-1,2-dihydropyridin-4-yl)-4-(trifluoromethyl)benzamide] displayed a concentration for half-maximal inhibition (IC50) of 560 nM.
Next, `O=C(Nc1cc[nH]c(=O)c1)c1ccc(Cl)cc1OCCCC(F)(F)F` [Compound 129, 4-chloro-N-(2-oxo-1,2-dihydropyridin-4-yl)-2-(4,4,4-trifluorobutoxy)benzamide]: 940 nM.
`O=C(Nc1cc[nH]c(=O)c1)c1cc(C(F)(F)F)ccc1OCC1CCCC1` [Compound 130, 2-(cyclopentylmethoxy)-N-(2-oxo-1,2-dihydropyridin-4-yl)-5-(trifluoromethyl)benzamide] displayed a half-maximal inhibitory concentration (IC50) of 5100 nM.
The same measure for `CC(C)COc1ccc(C(F)(F)F)cc1C(=O)Nc1cc[nH]c(=O)c1` [Compound 131, 2-isobutoxy-N-(2-oxo-1,2-dihydropyridin-4-yl)-5-(trifluoromethyl)benzamide]: 1500 nM; for `O=C(Nc1cc[nH]c(=O)c1)c1cc(C(F)(F)F)ccc1OCCC(F)(F)F` [Compound 132, N-(2-oxo-1,2-dihydropyridin-4-yl)-5-(trifluoromethyl)-2-(3,3,3-trifluoropropoxy)benzamide]: 330 nM; for `O=C(Nc1cc[nH]c(=O)c1)c1cc(C(F)(F)F)ccc1OCCCC(F)(F)F` [Compound 133, N-(2-oxo-1,2-dihydropyridin-4-yl)-2-(4,4,4-trifluorobutoxy)-5-(trifluoromethyl)benzamide]: 5800 nM.
The same measure for `CC1(C)CC1COc1ccc(C(F)(F)F)cc1C(=O)Nc1cc[nH]c(=O)c1` (stereo not drawn) [Compound 134, 2-((2,2-dimethylcyclopropyl)methoxy)-N-(2-oxo-1,2-dihydropyridin-4-yl)-5-(trifluoromethyl)benzamide]: 21000 nM.
The same measure for `O=C(Nc1cc[nH]c(=O)c1)c1cc(C(F)(F)F)ccc1OC1C[C@@H]2C[C@@H]2C1` (stereo partly drawn) [Compound 135]: 1650 nM; for `O=C(Nc1cc[nH]c(=O)c1)c1cc(OC(F)(F)F)ccc1OCC1CCCC1` [Compound 136, 2-(cyclopentylmethoxy)-N-(2-oxo-1,2-dihydropyridin-4-yl)-5-(trifluoromethoxy)benzamide]: 2600 nM; for `O=C(Nc1cc[nH]c(=O)c1)c1cc(OC(F)(F)F)ccc1OC1CCCCC1` [Compound 137, 2-(cyclohexyloxy)-N-(2-oxo-1,2-dihydropyridin-4-yl)-5-(trifluoromethoxy)benzamide]: 12600 nM.
`O=C(Nc1cc[nH]c(=O)c1)c1cc(OC(F)(F)F)ccc1OCCC(F)(F)F` [Compound 138, N-(2-oxo-1,2-dihydropyridin-4-yl)-5-(trifluoromethoxy)-2-(3,3,3-trifluoropropoxy)benzamide] came in with an IC50 of 1450 nM.
The same measure for `O=C(Nc1cc[nH]c(=O)c1)c1cc(OC(F)(F)F)ccc1OCCCC(F)(F)F` [Compound 139, N-(2-oxo-1,2-dihydropyridin-4-yl)-2-(4,4,4-trifluorobutoxy)-5-(trifluoromethoxy)benzamide]: 3050 nM; for `CC1(C)CC1COc1ccc(OC(F)(F)F)cc1C(=O)Nc1cc[nH]c(=O)c1` (stereo not drawn) [Compound 140, 2-((2,2-dimethylcyclopropyl)methoxy)-N-(2-oxo-1,2-dihydropyridin-4-yl)-5-(trifluoromethoxy)benzamide]: 15000 nM.
In turn, `CC(C)(C)c1ccc(C(=O)Nc2cc[nH]c(=O)c2)c(Oc2ccc(C(F)(F)F)nc2)c1` [Compound 141, 4-(tert-butyl)-N-(2-oxo-1,2-dihydropyridin-4-yl)-2-((6-(trifluoromethyl)pyridin-3-yl)oxy)benzamide] registered a half-inhibitory concentration (IC50) of 78 nM.
Next, `O=C(Nc1cc[nH]c(=O)c1)c1ccc(Cl)cc1Oc1ccc(C(F)(F)F)nc1` [Compound 143, 4-chloro-N-(2-oxo-1,2-dihydropyridin-4-yl)-2-((6-(trifluoromethyl)pyridin-3-yl)oxy)benzamide]: 3350 nM; `O=C(Nc1cc[nH]c(=O)c1)c1ccc(C(F)(F)F)cc1Oc1ccc(C(F)(F)F)nc1` [Compound 144, N-(2-oxo-1,2-dihydropyridin-4-yl)-4-(trifluoromethyl)-2-((6-(trifluoromethyl)pyridin-3-yl)oxy)benzamide]: 615 nM; `O=C(Nc1ccc(=O)[nH]c1)c1ccc(C(F)(F)F)cc1Oc1ccc(C(F)(F)F)nc1` [Compound 145, N-(6-oxo-1,6-dihydropyridin-3-yl)-4-(trifluoromethyl)-2-((6-(trifluoromethyl)pyridin-3-yl)oxy)benzamide]: 5000 nM.
The same measure for `Cc1ccc(Oc2cc(C(F)(F)F)ccc2C(=O)Nc2cc[nH]c(=O)c2)cn1` [Compound 146, 2-((6-methylpyridin-3-yl)oxy)-N-(2-oxo-1,2-dihydropyridin-4-yl)-4-(trifluoromethyl)benzamide]: 4600 nM; for `Cc1ncccc1Oc1cc(C(F)(F)F)ccc1C(=O)Nc1cc[nH]c(=O)c1` [Compound 147, 2-((2-methylpyridin-3-yl)oxy)-N-(2-oxo-1,2-dihydropyridin-4-yl)-4-(trifluoromethyl)benzamide]: 3800 nM.
`Cn1ccc(NC(=O)c2ccc(C(C)(C)C)cc2Oc2ccc(C(F)(F)F)nc2)cc1=O` [Compound 148, 4-(tert-butyl)-N-(1-methyl-2-oxo-1,2-dihydropyridin-4-yl)-2-((6-(trifluoromethyl)pyridin-3-yl)oxy)benzamide]: the half-maximal inhibitory concentration (IC50) was 450 nM.
The same measure for `Cn1cc(NC(=O)c2ccc(C(C)(C)C)cc2Oc2ccc(C(F)(F)F)nc2)ccc1=O` [Compound 149, 4-(tert-butyl)-N-(1-methyl-6-oxo-1,6-dihydropyridin-3-yl)-2-((6-(trifluoromethyl)pyridin-3-yl)oxy)benzamide]: 1650 nM; for `Cc1ncccc1Oc1ccc(C(F)(F)F)cc1C(=O)Nc1cc[nH]c(=O)c1` [Compound 150, 2-((2-methylpyridin-3-yl)oxy)-N-(2-oxo-1,2-dihydropyridin-4-yl)-5-(trifluoromethyl)benzamide]: 6600 nM; for `Cc1ncccc1Oc1ccc(OC(F)(F)F)cc1C(=O)Nc1cc[nH]c(=O)c1` [Compound 151, 2-((2-methylpyridin-3-yl)oxy)-N-(2-oxo-1,2-dihydropyridin-4-yl)-5-(trifluoromethoxy)benzamide]: 8400 nM.
Next, `Cc1cc(F)ccc1Oc1cc(C(F)(F)F)cc(C(F)(F)F)c1C(=O)Nc1cc[nH]c(=O)c1` [Compound 153, 2-(4-fluoro-2-methylphenoxy)-N-(2-oxo-1,2-dihydropyridin-4-yl)-4,6-bis(trifluoromethyl)benzamide]: 10 nM; `COc1cc(F)ccc1Oc1cc(C(F)(F)F)cc(C(F)(F)F)c1C(=O)Nc1cc[nH]c(=O)c1` [Compound 154, 2-(4-fluoro-2-methoxyphenoxy)-N-(2-oxo-1,2-dihydropyridin-4-yl)-4,6-bis(trifluoromethyl)benzamide]: 5 nM; `O=C(Nc1cc[nH]c(=O)c1)c1c(Oc2ccc(F)cc2)cc(C(F)(F)F)cc1C(F)(F)F` [Compound 155, 2-(4-fluorophenoxy)-N-(2-oxo-1,2-dihydropyridin-4-yl)-4,6-bis(trifluoromethyl)benzamide]: 11 nM.
`O=C(Nc1cc[nH]c(=O)c1)c1c(Oc2ccccc2)cc(C(F)(F)F)cc1C(F)(F)F` [Compound 156, N-(2-oxo-1,2-dihydropyridin-4-yl)-2-phenoxy-4,6-bis(trifluoromethyl)benzamide] had an IC50 of 52 nM.
Next, `COc1cc(F)ccc1Oc1cc(C(F)(F)F)ccc1C(=O)Nc1cc[nH]c(=O)c1` [Compound 158, 2-(4-fluoro-2-methoxyphenoxy)-N-(2-oxo-1,2-dihydropyridin-4-yl)-4-(trifluoromethyl)benzamide]: 2 nM; `O=C(Nc1cc[nH]c(=O)c1)c1ccc(C(F)(F)F)cc1OCc1cc(F)ccc1O` [Compound 159, 2-((5-fluoro-2-hydroxybenzyl)oxy)-N-(2-oxo-1,2-dihydropyridin-4-yl)-4-(trifluoromethyl)benzamide]: 2600 nM; `O=C(Nc1cc[nH]c(=O)c1)c1cc(F)ccc1Oc1ccc(OCCCC(F)(F)F)cc1` [Compound 160, 5-fluoro-N-(2-oxo-1,2-dihydropyridin-4-yl)-2-(4-(4,4,4-trifluorobutoxy)phenoxy)benzamide]: 1390 nM.
